Assay results: patent publication US20030161799A1, “Practical and humane method for armpit odor care” (priority 2002, published 2003)
Like-named read-outs stand apart in the source and are kept apart here.

Experiments:
axillary malodor = test: topical treatment of axillary malodor on the skin; assay type: in vivo, human; conditions: for effect against axillary malodors: topical application to armpits, applicants' own experiments; for outcome of treatment of repeated infections: overnight
Text: Non-prescription azoles sold in groceries are intended for treating feet or vaginal fungal infections. Essentially the same compositions are often sold for feet and vaginal applications under different labels and in different forms. For axillary use, we strongly prefer them as creams.
In our experiments, we treated the armpits, then switched to all new underwear, and rigorously sterilized it with chlorine-based bleaches after every use. […]
A person, low perspiration, axillary malodor since puberty. […] Now uses peroxide bleach all the time.

[1] = in vivo
Text: (§1) Undecylenic acid, salicylic acid and peroxides suffer from certain disadvantages.

[2] = skin tolerability on armpit application
Text: as §1

In the case of `CN(C/C=C/C#CC(C)(C)C)Cc1cccc2ccccc12` [Terbinafine], the “effect against axillary malodors” value (axillary malodor) is reported as “some effect”.
For `C=CCCCCCCCCC(=O)O` [Undecylenic acid], the “effect against axillary malodors” value (axillary malodor) was “functional” and the adverse skin effects [1] was “may cause pain, burning and irritations”.
With `O=C(OOC(=O)c1ccccc1)c1ccccc1` [benzoyl peroxide] the “effect against axillary malodors” value (axillary malodor) was “functional”.
With `Clc1ccccc1C(c1ccccc1)(c1ccccc1)n1ccnc1` [clotrimazole] the “time at which the odor disappears” value (axillary malodor; mature axillary malodor, cream two times a day, two weeks treatment) was “between the fourth and the seventh day”.
For `OO` [hydrogen peroxide], the “effect against axillary malodors” value (axillary malodor) was “functional”.
In the case of `Clc1ccc(COC(Cn2ccnc2)c2ccc(Cl)cc2Cl)c(Cl)c1` (stereo not shown) [miconazole], the “outcome of treatment of repeated infections” value (axillary malodor; person, two times in a row) is reported as “cured” and the “outcome of first treatment of axillary malodor” value (axillary malodor; person, two applications per day, seven days in a row) is reported as “Successfully treated”.
In the case of `O=C(O)c1ccccc1O` [salicylic acid], the “effect against axillary malodors” value (axillary malodor) is reported as “functional” and the adverse skin effects [2] is reported as “may cause pain, burning and irritations”.
In the case of `Clc1ccc(C(Cn2ccnc2)OCc2ccsc2Cl)c(Cl)c1` (stereo not shown) [tioconazole], the “outcome of treatment of repeated infections” value (axillary malodor; person, one-time treatment) is reported as “cured” and the “effectiveness compared with clotrimazole” value (axillary malodor; vaginal tioconazole product, topical on armpits) is reported as “much more effective than clotrimazole”.
In the case of `Cc1cccc(N(C)C(=S)Oc2ccc3ccccc3c2)c1` [tolnaftate], the “effect against axillary malodors” value (axillary malodor) is reported as “some effect”.
